Where no end group is shown, it is not given here. [ ]: non-standard residue; d: D form.
Experiments:
[1] = test system: naïve BWF1 CD4+ CD25− helper T cells cultured with naïve BWF1 B cells; test: anti-DNA antibody-forming cells in cultures of BWF1 B cells plus CD4+ CD25− helper T cells after i.v. peptide; format: in vivo, mice
Experimental: FIG. 1 provides a bar graph of data showing that the intravenous administration of either 500 or 250 ug of D-pCons is effective in suppressing anti-DNA antibody production by naïve BWF1 CD4+ CD25− helper T cells cultured with naïve BWF1 B cells. The numbers of splenic B cells making IgG anti-DNA dropped from 65 per 10^6 B cells in the untreated group to 30-32 in the tolerized groups.
FIG. 2 provides a bar graph of data from studies of L-pCons and D-pCons. Both D-pCons and L-pCons peptides were given once i.v. and spleen cells harvested 2 weeks later. Note that for L-pCons, the combination of naïve B cells plus CD4+ CD25− helper T cells gave a mean of 160 anti-DNA antibody-forming cells per 10^6 B cells (column 3), whereas addition of CD4+ CD25+ Treg from tolerized mice to the culture reduced the AFC to 25 per 10^6 B cells (column 4). These differences were statistically significant, p<0.001. Note also that the suppression was abrogated by incubation of the cultures with antibodies to GITR (column 6) or TGFb-LAP (column 7), but not by CTLA4-Ig (column 8).
(§1) For tolerance induction, ten-to-twelve week-old BWF1 mice received a single i.v. dose of 1 mg of one of the peptides, dissolved in saline, as reported previously (see, e.g. Singh et al., J Clin Invest 1995; 96:2990-6). Controls in selected experiments were either treated with saline or control peptides.
Assays were performed to measure anti-DNA Ab according to art accepted protocols (see, e.g. Singh et al., J Clin Invest 1995; 96:2990-6; Hahn et al., Arthritis Rheum 2001; 44:432-41; La Cava et al., J Immunol 2004; 173:3542-8; Hahn et al., Ann NY Acad Sci 2005; 1051:433-41; Hahn et al., J Immunol 2005; 175:7728-37; Singh et al., J Immunol 2007; 178:7649-57). […] After 5 days, culture supernatants were collected, concentrated, and analyzed for anti-DNA IgG by ELISA. […]

BWF1 mice [2] = test: anti-DNA antibodies (ELISA) in mice fed peptide; format: in vivo; details: 250 ug fed 5 days out of each 30 from age 10 weeks
Experimental: Anti-DNA antibodies were measured by ELISA and proteinuria by Azostix (see, e.g. Yang et al., J. I., 2003, 171: 2142-2153).
We also observed the clinical effects of feeding either D- or L-peptides at the low, medium and high doses of each. Because mRNA analysis of mesenteric lymph nodes provided evidence that high dose D-peptide would induce tolerance, we began new experiments to compare high dose (250 ug) feedings of D-peptide to the same dose of L-peptide. A control group was fed saline on the same schedule as the peptide feedings, which is daily for 5 days out of each 30 days. Each group contains 14 mice; treatment was begun at age 10 weeks. Observed effects on anti-DNA are as follows. […] Note that the saline control group is lower than the positive control anti-DNA, which is serum from BWF1 mice with heavy proteinuria and imminent death. Thus, the saline control has not reached the expected high level at this point but should do so in the next 2 months.

mice = test: induction of Treg and Ti in mice by administered peptide; format: in vivo; details: administered subcutaneously (so in the source)
BWF1 mice [3] = test: survival and clinical disease in BWF1 mice given L-pCons intravenously; format: in vivo; details: 1 mg i.v. monthly from age 10 weeks
Experimental: FIG. 3 provides a graph of data showing the suppression of clinical disease that occurs in BWF1 mice treated monthly from age 10 weeks with 1 mg of L-pCons administered intravenously.
as §1
Using 50% mortality times, the lifespan is prolonged 30-32 weeks. […] A similar study has been started with D-pCons administered orally; results are anticipated in 30 weeks. Serum is obtained at regular intervals for anti-DNA testing; urine is tested for proteinuria monthly (when 2+ appears mice are tested weekly), and survival is measured daily.
Since this increase in survival was small (6 weeks), we developed an algorithm based on 435 VH sequence peptides to create an artificial 15-mer peptide containing amino acid sequences which bind to I-Ed (one of the MHC Class II molecules in BWF1) and to be stimulatory for BWF1 T cells—which we called pConsensus or pCons. […] The control artificial 15-mer, pNegative (pNeg) was constructed to bind I-Ed but not stimulate T cells. […]

BWF1 mice [4] = test: single adoptive transfer of CD8+ Ti from tolerized mice to irradiated syngeneic recipients; format: in vivo; details: single transfer of 10×10^6 CD8+ T cells from spleens of tolerized mice
Source text: FIG. 4 provides graphs of data showing the CD8+ Ti induced by i.v. administration of L-pCons are potent in suppressing nephritis (left panel) and prolonging survival in vivo (right panel) (see, e.g. Hahn et al., J Immunol 2005; 175:7728-37).

| Sequence | suppression of anti-DNA antibody production ([1]; 125 ug dose i.v.) | numbers of splenic B cells making IgG anti-DNA ([1]; 500 or 250 ug i.v. (tolerized groups), untreated group 65) | anti-DNA antibody levels vs saline (BWF1 mice [2]; at 24 weeks of age, not statistically significant) | anti-DNA antibody levels vs saline (BWF1 mice [2]; at 34 weeks, one-tailed t test, listed as D-peptide) | induction of Treg and Ti (mice) | anti-DNA antibody-forming cells (AFC) ([1]; peptide once i.v., spleen cells 2 weeks later, CD4+ CD25+ Treg from tolerized mice added to culture, 160 without Treg, p<0.001) | appearance of IgG anti-DNA in serum and of nephritis (BWF1 mice [3]) | lifespan prolonged, using 50% mortality times (BWF1 mice [3]) | effect of peptide-induced CD8+ Ti on nephritis and survival (BWF1 mice [4]) | anti-DNA antibody levels vs saline (BWF1 mice [2]; at 34 weeks, one-tailed t test, listed as L-peptide) |
| --- | --- | --- | --- | --- | --- | --- | --- | --- | --- | --- |
| FIEWNKLRFRQGLEW ([dF][dI][dE][dW][dN][dK][dL][dR][dF][dR][dQ]G[dL][dE][dW]) [D-pCons] | not effective in inducing suppression | 30-32 per 10^6 B cells | trends to lower anti-DNA antibody levels | borderline (p=0.17 by one-tailed t test) | induces Treg and Ti |  |  |  |  |  |
| FIEWNKLRFRQGLEW [L-pCons] |  |  |  |  |  | 25 per 10^6 B cells | significant delay | 30-32 weeks | potent in suppressing nephritis and prolonging survival in vivo | significantly lower than saline (p=0.03) |

Source: patent US8492347B2, “Peptide for induction of immune tolerance as treatment for systemic lupus erythematosus” (The Regents of the University of California, priority 2007, dated 2013)
